{
  "source": "paper PMC7570662",
  "about": "“In Vivo Pharmacokinetic Analysis Utilizing Non-Targeted and Targeted Mass Spectrometry and In Vitro Assay against Transient Receptor Potential Channels of Maobushisaishinto and Its Constituent Asiasari Radix” (Molecules, 2020)",
  "key": {"[1]": {"assay": "Quantitative targeted LC-MS/MS pharmacokinetics of AR ingredients in rat plasma after oral MBST", "format": "in vivo", "description": "Seven-week-old male Sprague-Dawley rats were purchased from Charles River Laboratories (Yokohama, Japan) and Japan SLC (Hamamatsu, Japan). The animals were housed under a temperature of 23 °C ± 3 °C and relative humidity of 50% ± 20%, with 12-h/12-h light/dark cycle and allowed free access to water and standard laboratory food (MF, Oriental Yeast Co., Ltd., Tokyo, Japan). The animals were used in experiments following habituation for several days.\nExtract powders of AR or MBST were suspended in distilled water and orally administered to rats having fasted for approximately 16 h. The dose of AR was set at 2 g/kg, and the MBST doses were set at 1 and 2 g/kg. 1 g/kg MBST contained 578 µg/kg, 147 µg/kg, 226 µg/kg, 426 µg/kg asarinin, sesamin, methyl kakuol, and amide A, respectively. The doses were chosen based on a previous pharmacological study of MBST using rats.\nBlood samples were centrifuged at 1700× g at 4 °C for 15 min to obtain plasma, of which samples were then stored at ≤−75 °C until analysis.\nTo quantify the plasma concentration of the AR components identified by the non-targeted analysis, the plasma samples at 0–24 h after MBST administration (1 or 2 g/kg) were supplied to targeted LC-MS/MS analysis in SRM mode with electrospray ionization.\nFor the quantification of methyl kakuol, amide A, asarinin, and sesamin in plasma, 100 µL of MBST-treated rat plasma was mixed with 20 µL of methanol (as the vehicle of the working solution described below) and 20 µL of internal standard niflumic acid (2 or 20 ng/mL). To prepare the calibration curve, the same volumes of blank plasma and various concentrations of working solution (final plasma concentration, 0.02–200 ng/mL) were used instead of the MBST-treated rat plasma and methanol. Finally, 500 µL of methanol was added for deproteinization. The mixture was centrifuged at 7000× g at 4 °C for 5 min. The supernatant was dried using a centrifugal evaporator. The dried residue was dissolved in 60 or 80 μL of the initial LC mobile phase which was composed of 5 mmol/L ammonium acetate in water/methanol (70/30, v/v), and then, a 5 or 10 μL aliquot was injected into the LC-MS/MS system. The injected sample was chromatographically separated using a YMC-Pack ODS-AQ column (2.0 ×150 mm I.D., 3-μm particle size; GL Sciences, Tokyo, Japan) at 30 °C. The mobile phase consisted of solution A (5 mmol/L ammonium acetate) as well as solution B (methanol), with a gradient of solution B (30%, 0 min; 70%, 25 min; 95%, 25.01–30 min; 30%, 30.01–35 min; v/v) at a flow rate of 0.3 mL/min. In brief, the compounds were analyzed using optimal MS/MS parameters as follows: methyl kakuol (m/z 209.056/176.1), amide A (m/z 248.174/57.1), asarinin (m/z 372.123/173.1), and sesamin (m/z 372.118/233.1). The calibration ranges for methyl kakuol, amide A, asarinin, and sesamin were 0.5–100 ng/mL, 0.5–200 ng/mL, 0.1–200 ng/mL, 0.1–200 ng/mL, respectively.\nThe AR ingredient levels in the plasma are presented as the mean + standard deviation. Pharmacokinetic parameters of plasma AR ingredients, such as the Cmax, AUC0-last, were calculated by non-compartmental analysis using the Phoenix WinNonlin software (Certara L.P., St. Louis, MO, USA). The concentration data were pooled per each time point; then, the mean concentration–time data were subjected to the non-compartmental analysis."}, "[2]": {"test_system": "LPS-induced NO production in RAW264.7 cells", "assay": "LPS-induced NO production in RAW264.7 cells (Griess method)", "format": "cell-based, mouse", "settings": "LPS 3 µg/mL, 24 h, mean of two experiments", "description": "The experimental methods and results about the measurement of extracellular NO production are described as following.\nMouse macrophage-like RAW264. 7 cells were obtained from the European Collection of Authenticated Cell Cultures and cultured in Dulbecco’s Modified Eagle Medium (DMEM) containing 10% fetal bovine serum (FBS). The cells were maintained at 37 °C in a humidified incubator with an […]\nRAW264. 7 cells were seeded in 48-well plates (6.0 × 10^4 cells per well) and incubated overnight, and then, 1 or 10 µmol/L of test compounds and 3 µg/mL of lipopolysaccharide (LPS; from Escherichia coli 0111: B4, L3024; Sigma-Aldrich) were added into the medium. Following 24 h after addition, 100 µL of conditioned media were collected and mixed with equal volume of Griess reagent (G4410; Sigma-Aldrich), and the mixture was incubated at room temperature for 15 min. Finally, absorbance was determined at 540 nm wave. Nitrite concentrations were quantified using a calibration curve obtained from a dilute solution of NaNO2. […]\nproduction at concentrations of 1 or 10 µmol/L.\nTable S3. Effect of Asiasari Radix ingredients on LPS -induced NO production.\nTest Compound (% of LPS Control)\nAmide A: (2E,4E,8Z,10E)-N-isobutyl-2,4,8,10-dodecatetraenamide. Each test compound (1 or 10 µmol/L) and lipopolysaccharide (LPS, 3 µg/mL) were added into a culture of RAW264. 7 cells. Following 24 h of substance addition, nitric oxide (NO) released in the cell medium was measured by Griess method. Percentage of NO production was calculated using the following equation: (nitrite concentration after treatment with test compound and LPS/nitrite concentration after treatment with LPS only) × 100. Each value represents the mean of two independent experiments"}, "[3]": {"settings": "male, Sprague-Dawley, rat, in vivo, po, 1 g/kg"}, "[4]": {"settings": "male, Sprague-Dawley, rat, in vivo, po, 2 g/kg"}},
  "note": "Like-named read-outs stand apart in the source and are kept apart here.",
  "data": [
    {"smiles": "C/C=C/C=C\\CC/C=C/C=C/C(=O)NCC(C)C", "note": "[Amide A, (2E,4E,8Z,10E)-N-isobutyl-2,4,8,10-dodecatetraenamide]", "values": [
      {"measurement": "AUC(0-t)", "setting": "[1]; male, Sprague-Dawley, rat plasma, oral MBST 1 g/kg, read-out: AUC0-last", "result": 4.87, "unit": "ng·h/mL"},
      {"measurement": "Cmax", "setting": "[1]; male, Sprague-Dawley, rat plasma, oral MBST 1 g/kg, read-out: Cmax", "result": 4.08, "unit": "ng/mL"},
      {"measurement": "k el", "setting": "[1]; male, Sprague-Dawley, rat plasma, oral MBST 1 g/kg, read-out: kel (converted)", "result": 0.000211, "unit": "s⁻¹"},
      {"measurement": "half-life", "setting": "[1]; male, Sprague-Dawley, rat plasma, oral MBST 1 g/kg, read-out: t1/2 (converted)", "result": 54.7, "unit": "min"},
      {"measurement": "Tmax", "setting": "[1]; male, Sprague-Dawley, rat plasma, oral MBST 1 g/kg, read-out: tmax", "result": 30, "unit": "min"},
      {"measurement": "AUC(0-t)", "setting": "[1]; male, Sprague-Dawley, rat plasma, oral MBST 2 g/kg, read-out: AUC0-last", "result": 18.4, "unit": "ng·h/mL"},
      {"measurement": "Cmax", "setting": "[1]; male, Sprague-Dawley, rat plasma, oral MBST 2 g/kg, read-out: Cmax", "result": 6.07, "unit": "ng/mL"},
      {"measurement": "k el", "setting": "[1]; male, Sprague-Dawley, rat plasma, oral MBST 2 g/kg, read-out: kel (converted)", "result": "6.58e-05", "unit": "s⁻¹"},
      {"measurement": "half-life", "setting": "[1]; male, Sprague-Dawley, rat plasma, oral MBST 2 g/kg, read-out: t1/2 (converted)", "result": 175, "unit": "min"},
      {"measurement": "Tmax", "setting": "[1]; male, Sprague-Dawley, rat plasma, oral MBST 2 g/kg, read-out: tmax", "result": 15, "unit": "min"},
      {"measurement": "NO Production (% of LPS Control)", "setting": "[2]; 1 µmol/L test compound", "result": "92 % of LPS Control"},
      {"measurement": "NO Production (% of LPS Control)", "setting": "[2]; 10 µmol/L test compound", "result": "82 % of LPS Control"}
    ]},
    {"smiles": "c1cc2c(cc1[C@H]1OC[C@H]3[C@@H]1CO[C@@H]3c1ccc3c(c1)OCO3)OCO2", "note": "[Sesamin]", "values": [
      {"measurement": "AUC(0-t)", "setting": "[1]; [3]", "result": 11.9, "unit": "ng·h/mL"},
      {"measurement": "Cmax", "setting": "[1]; [3]", "result": 5.63, "unit": "ng/mL"},
      {"measurement": "Tmax", "setting": "[1]; [3]", "result": 30, "unit": "min"},
      {"measurement": "half-life", "setting": "[1]; [3]", "result": 97.8, "unit": "min"},
      {"measurement": "k el", "setting": "[1]; [3]", "result": 0.000118, "unit": "s⁻¹"},
      {"measurement": "AUC(0-t)", "setting": "[1]; [4]", "result": 28.7, "unit": "ng·h/mL"},
      {"measurement": "Cmax", "setting": "[1]; [4]", "result": 9.44, "unit": "ng/mL"},
      {"measurement": "Tmax", "setting": "[1]; [4]", "result": 15, "unit": "min"},
      {"measurement": "half-life", "setting": "[1]; [4]", "result": 179, "unit": "min"},
      {"measurement": "k el", "setting": "[1]; [4]", "result": "6.44e-05", "unit": "s⁻¹"},
      {"measurement": "NO Production (% of LPS Control)", "setting": "[2]; 1 µmol/L test compound", "result": "96 % of LPS Control"},
      {"measurement": "NO Production (% of LPS Control)", "setting": "[2]; 10 µmol/L test compound", "result": "78 % of LPS Control"}
    ]},
    {"smiles": "c1cc2c(cc1[C@H]1OC[C@H]3[C@@H]1CO[C@H]3c1ccc3c(c1)OCO3)OCO2", "note": "[Asarinin, (−)-Asarinin]", "values": [
      {"measurement": "AUC(0-t)", "setting": "[1]; [3]", "result": 16.3, "unit": "ng·h/mL"},
      {"measurement": "Cmax", "setting": "[1]; [3]", "result": 8.42, "unit": "ng/mL"},
      {"measurement": "Tmax", "setting": "[1]; [3]", "result": 15, "unit": "min"},
      {"measurement": "half-life", "setting": "[1]; [3]", "result": 91.2, "unit": "min"},
      {"measurement": "k el", "setting": "[1]; [3]", "result": 0.000127, "unit": "s⁻¹"},
      {"measurement": "AUC(0-t)", "setting": "[1]; [4]", "result": 38.6, "unit": "ng·h/mL"},
      {"measurement": "Cmax", "setting": "[1]; [4]", "result": 14.7, "unit": "ng/mL"},
      {"measurement": "Tmax", "setting": "[1]; [4]", "result": 15, "unit": "min"},
      {"measurement": "half-life", "setting": "[1]; [4]", "result": 176, "unit": "min"},
      {"measurement": "k el", "setting": "[1]; [4]", "result": "6.58e-05", "unit": "s⁻¹"},
      {"measurement": "NO Production (% of LPS Control)", "setting": "[2]; 1 µmol/L test compound", "result": "99 % of LPS Control"},
      {"measurement": "NO Production (% of LPS Control)", "setting": "[2]; 10 µmol/L test compound", "result": "97 % of LPS Control"}
    ]},
    {"smiles": "CCC(=O)c1cc2c(cc1OC)OCO2", "note": "[Methyl kakuol]", "values": [
      {"measurement": "AUC0-last", "setting": "[1]; rat plasma, oral MBST 1 g/kg", "result": 22.5, "unit": "ng·h/mL"},
      {"measurement": "Cmax", "setting": "[1]; rat plasma, oral MBST 1 g/kg", "result": 26.7, "unit": "ng/mL"},
      {"measurement": "Tmax", "setting": "[1]; rat plasma, oral MBST 1 g/kg", "result": 30, "unit": "min"},
      {"measurement": "k el", "setting": "[1]; rat plasma, oral MBST 1 g/kg", "result": 0.000425, "unit": "s⁻¹"},
      {"measurement": "t1/2", "setting": "[1]; rat plasma, oral MBST 1 g/kg", "result": 27.1, "unit": "min"},
      {"measurement": "AUC0-last", "setting": "[1]; rat plasma, oral MBST 2 g/kg", "result": 214, "unit": "ng·h/mL"},
      {"measurement": "Cmax", "setting": "[1]; rat plasma, oral MBST 2 g/kg", "result": 98.2, "unit": "ng/mL"},
      {"measurement": "Tmax", "setting": "[1]; rat plasma, oral MBST 2 g/kg", "result": 60, "unit": "min"},
      {"measurement": "k el", "setting": "[1]; rat plasma, oral MBST 2 g/kg", "result": 0.000153, "unit": "s⁻¹"},
      {"measurement": "t1/2", "setting": "[1]; rat plasma, oral MBST 2 g/kg", "result": 75.6, "unit": "min"},
      {"measurement": "NO Production (% of LPS Control)", "setting": "[2]; 1 µmol/L test compound", "result": "102 % of LPS Control"},
      {"measurement": "NO Production (% of LPS Control)", "setting": "[2]; 10 µmol/L test compound", "result": "93 % of LPS Control"}
    ]}
  ]
}
